biological target: recombinant human GAA (acid alpha-glucosidase) (Homo sapiens, UniProt P10253); assay: Acid alpha-glucosidase (GAA) assay (4-methylumbelliferyl-alpha-D-pyranoside substrate, fluorescence); type: biochemical
Outline: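 IC50 from 4-PL curve fit of percent inhibition, based on fluorescence (365/440 nm) of released methylumbelliferone relative to uninhibited enzyme. Compound dilutions and human GAA incubated 60 min, 37 °C, before 20 min substrate reaction at 37 °C, quenched at pH 10.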

`COC(=O)c1cc(Cl)cc(NCCc2ccc(CCN3C[C@H](O)[C@@H](O)[C@H](O)[C@H]3CO)cc2)c1` [Compound 1116, methyl 3-chloro-5-{[2-(4-{2-[(2R,3R,4R,5S)-3,4,5-trihydroxy-2-(hydroxymethyl)piperidin-1-yl]ethyl}phenyl)ethyl]amino}benzoate] and `O=C(O)c1cc(Cl)cc(NCCc2ccc(CCN3C[C@H](O)[C@@H](O)[C@H](O)[C@H]3CO)cc2)c1` [Compound 1117, 3-chloro-5-{[2-(4-{2-[(2R,3R,4R,5S)-3,4,5-trihydroxy-2-(hydroxymethyl)piperidin-1-yl]ethyl}phenyl)ethyl]amino}benzoic acid] are within 1.5-fold of each other in IC50: 428 nM for the first, 498 nM for the second.

Going from `O=C(O)c1cc(NCCCCCCN2C[C@H](O)[C@@H](O)[C@H](O)[C@H]2CO)cc(-c2ncccn2)c1` [Compound 1118, 3-(pyrimidin-2-yl)-5-({6-[(2R,3R,4R,5S)-3,4,5-trihydroxy-2-(hydroxymethyl)piperidin-1-yl]hexyl}amino) benzoic acid] to `OC[C@@H]1[C@@H](O)[C@H](O)[C@@H](O)CN1CCc1ccc(CCNc2cc(Cl)cc(-c3noc(C4CCC4)n3)c2)cc1` [Compound 1122, (2R,3R,4R,5S)-1-{2-[4-(2-{[3-chloro-5-(5-cyclobutyl-1,2,4-oxadiazol-3-yl)phenyl]amino}ethyl)phenyl]ethyl}-2-(hydroxymethyl)piperidine-3,4,5-triol], the IC50 rises from 27 nM to 558 nM (21-fold).

For `COc1cc(NCCc2ccc(CCN3C[C@H](O)[C@@H](O)[C@H](O)[C@H]3CO)cc2)cc(-c2noc(C3CCC3)n2)c1` [Compound 1120, (2R,3R,4R,5S)-1-{2-[4-(2-{[3-(5-cyclobutyl-1,2,4-oxadiazol-3-yl)-5-methoxyphenyl]amino}ethyl)phenyl]ethyl}-2-(hydroxymethyl)piperidine-3,4,5-triol], the IC50 was 581 nM.

Source: patent publication US20250197372A1 (priority 2020, published 2025)
